Data reported in patent publication US7411069B2 (Hypnion, Inc., priority 2003, dated 2008).

Experiments:
H1 histamine receptor = target: T1, H1 histamine receptor (Bos taurus, UniProt P30546); assay: H1 binding assay ([3H]pyrilamine displacement); design: species or system bovine; conditions: average N=2
T1 construct: the receptors were obtained from bovine cerebellar membrane tissue; from tissue; host or cells: bovine cerebellar membranes

M3 muscarinic receptor = target: T2, M3 muscarinic receptor (Homo sapiens, UniProt P20309); assay: M3 binding assay ([3H]-scopolamine, N-methyl chloride displacement); conditions: average N=2
T2 construct: purchased PerkinElmer, Inc., Wellesley, Mass; host or cells: CHO cells
T2 sequence (P20309 whole entry): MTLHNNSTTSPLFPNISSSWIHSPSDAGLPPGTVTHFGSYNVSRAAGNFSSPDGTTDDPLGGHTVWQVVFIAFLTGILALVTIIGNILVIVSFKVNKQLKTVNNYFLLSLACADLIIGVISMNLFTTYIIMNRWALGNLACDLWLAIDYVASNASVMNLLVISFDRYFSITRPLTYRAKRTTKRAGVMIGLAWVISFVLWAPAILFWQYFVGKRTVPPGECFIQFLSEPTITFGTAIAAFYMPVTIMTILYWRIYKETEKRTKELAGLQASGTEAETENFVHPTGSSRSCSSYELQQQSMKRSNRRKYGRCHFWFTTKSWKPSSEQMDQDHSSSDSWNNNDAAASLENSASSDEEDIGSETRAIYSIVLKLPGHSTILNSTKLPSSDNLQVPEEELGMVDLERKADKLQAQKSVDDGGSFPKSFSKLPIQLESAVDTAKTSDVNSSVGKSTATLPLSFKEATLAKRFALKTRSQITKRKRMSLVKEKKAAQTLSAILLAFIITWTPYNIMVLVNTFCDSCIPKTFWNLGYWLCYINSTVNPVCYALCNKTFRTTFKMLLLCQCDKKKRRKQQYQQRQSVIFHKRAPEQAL

Histamine, H1 = Histamine, H1 (Bos taurus, UniProt P30546); assay: Binding specificity panel; conditions: 1.0E−6; average N=2
Chain of Histamine, H1 (P30546 whole entry): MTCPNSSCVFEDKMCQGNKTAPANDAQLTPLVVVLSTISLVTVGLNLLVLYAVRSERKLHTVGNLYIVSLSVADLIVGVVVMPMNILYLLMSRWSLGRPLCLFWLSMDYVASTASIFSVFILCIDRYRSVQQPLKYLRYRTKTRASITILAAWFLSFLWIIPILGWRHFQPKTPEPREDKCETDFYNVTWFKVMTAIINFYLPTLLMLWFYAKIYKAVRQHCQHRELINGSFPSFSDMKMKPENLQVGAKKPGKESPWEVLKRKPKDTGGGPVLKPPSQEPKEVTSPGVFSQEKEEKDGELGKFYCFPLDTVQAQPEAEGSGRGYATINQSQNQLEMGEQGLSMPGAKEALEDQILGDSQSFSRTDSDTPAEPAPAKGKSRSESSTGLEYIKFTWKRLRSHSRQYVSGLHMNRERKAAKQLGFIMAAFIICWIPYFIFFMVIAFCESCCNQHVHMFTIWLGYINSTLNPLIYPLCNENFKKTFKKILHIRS
Text: The percentage inhibition (average; N=2) for these receptors is shown below in Table 12.
Values in Table 12 are expressed as percentage inhibition of specific binding, and these values represent the average of replicate tubes at each of the concentrations tested.

male Wistar rats = assay: SCORE-2000 sleep-wakefulness, locomotor activity and body temperature monitoring

T1 sequence (P30546 whole entry): as above

CC(CC(=O)O)N1CCC(=C2c3ccc(F)cc3COc3ccccc32)CC1 (stereo not shown) [Compound 37]
% Inhibition, H1 (H1 histamine receptor; concentration 1.0E−5): 95.79%
% Specific Binding, H1 (H1 histamine receptor; concentration 1.0E−5): 3.21%
% Inhibition, H1 (H1 histamine receptor; concentration 1.0E−6): 93.75%
% Specific Binding, H1 (H1 histamine receptor; concentration 1.0E−6): 6.25%
% Inhibition, H1 (H1 histamine receptor; concentration 1.0E−7): 60.82%
% Specific Binding, H1 (H1 histamine receptor; concentration 1.0E−7): 39.18%
% Inhibition, H1 (H1 histamine receptor; concentration 1.0E−8): 8.60%
% Specific Binding, H1 (H1 histamine receptor; concentration 1.0E−8): 91.40%
% Inhibition, H1 (H1 histamine receptor; concentration 1.0E−9): 2.99%
% Specific Binding, H1 (H1 histamine receptor; concentration 1.0E−9): 97.01%
% Specific Binding, H1 (H1 histamine receptor; concentration 3.0E−6): 6.74%
% Inhibition, H1 (H1 histamine receptor; concentration 3.0E−7): 81.03%
% Specific Binding, H1 (H1 histamine receptor; concentration 3.0E−7): 18.97%
% Inhibition, H1 (H1 histamine receptor; concentration 3.0E−8): 30.37%
% Specific Binding, H1 (H1 histamine receptor; concentration 3.0E−8): 69.53%
% Inhibition, M3 (M3 muscarinic receptor; concentration 1.0E−5): 4.27%
% Specific Binding, M3 (M3 muscarinic receptor; concentration 1.0E−5): 95.73%
% Inhibition, M3 (M3 muscarinic receptor; concentration 1.0E−6): 0.79%
% Specific Binding, M3 (M3 muscarinic receptor; concentration 1.0E−6): 99.21%
% Inhibition, M3 (M3 muscarinic receptor; concentration 1.0E−7): 5.85%
% Specific Binding, M3 (M3 muscarinic receptor; concentration 1.0E−7): 93.15%
% Inhibition, M3 (M3 muscarinic receptor; concentration 1.0E−8): −8.34%
% Specific Binding, M3 (M3 muscarinic receptor; concentration 1.0E−8): 108.34%
% Inhibition, M3 (M3 muscarinic receptor; concentration 1.0E−9): −0.65%
% Specific Binding, M3 (M3 muscarinic receptor; concentration 1.0E−9): 100.65%
% Specific Binding, M3 (M3 muscarinic receptor; concentration 3.0E−6): 94.59%
% Specific Binding, M3 (M3 muscarinic receptor; concentration 3.0E−7): 94.45%
% Inhibition, M3 (M3 muscarinic receptor; concentration 3.0E−8): 6.99%
% Specific Binding, M3 (M3 muscarinic receptor; concentration 3.0E−8): 93.01%
percentage inhibition of specific binding (Histamine, H1): 23.13%
REM inhibition (male Wistar rats; 10 mg/kg): did not produce any
rebound insomnia (male Wistar rats; 10 mg/kg): did not produce any
reduction in body temperature (male Wistar rats; 10 mg/kg): no disproportional reduction
reduction in locomotor activity (LMA) (male Wistar rats; 10 mg/kg): no disproportional reduction
Cumulative NREM sleep time increase, adjusted for baseline and relative to vehicle (male Wistar rats; 10 mg/kg PO, CT-18): 53 min
absolute average sleep bout (male Wistar rats; 10 mg/kg PO, CT-18): 9 min
average sleep bout length increase, adjusted for baseline and relative to vehicle (male Wistar rats; 10 mg/kg PO, CT-18): 5.3 min
peak NREM sleep time (male Wistar rats; 10 mg/kg PO, CT-18): 64 % per hour
body temperature (male Wistar rats; 30 mg/kg): unacceptable drop in body temperature
reduction in LMA (male Wistar rats; 30 mg/kg): no disproportional reduction
Cumulative NREM sleep time increase, adjusted for baseline and relative to vehicle (male Wistar rats; 30 mg/kg PO, CT-18): 62 min
absolute average sleep bout (male Wistar rats; 30 mg/kg PO, CT-18): 9 min
absolute longest sleep bout post-treatment (male Wistar rats; 30 mg/kg PO, CT-18): 25 min
average sleep bout length increase, adjusted for baseline and relative to vehicle (male Wistar rats; 30 mg/kg PO, CT-18): 5.6 min
peak NREM sleep time (male Wistar rats; 30 mg/kg PO, CT-18): 72 % per hour
REM inhibition (male Wistar rats; 30 mg/kg, CT-18): did not produce any appreciable REM inhibition
